Each structure is given as a SMILES string.

Results on three molecules are retold here after patent US20220265658A1, “PHARMACEUTICAL COMPOSITION COMPRISING A TETRAHYDROPYRAZOLOPYRIMIDINONE COMPOUND” (Idorsia Pharmaceuticals Ltd., priority 2019, published 2022).

The nature of data set [1]: Stability testing of solid COMPOUND (powder in glass vial, HPLC 1 area vs reference stored at -20° C.). It counts as physicochemical. The conditions noted are these: 260 nm. On the procedure: Samples were directly analyzed by HPLC without dilution (expected concentration 1000 μg/mL). The HPLC area of each treated sample was compared to the HPLC area of the reference samples.
HPLC system: High pressure mixing Shimadzu Prominence (HPLC_08_DAD); Flow: 1.5 mL/min; Column temperature: 50° C.; Autosampler temperature: 25° C.; Injection volume: 3.0 μL; Column: Waters XBridge BEH C18 2.5 μm 2.1*50 mm Column XP; Wavelength: DAD 260 nm

Data set [2] is described as follows: Gravimetric vapour sorption (GVS) hygroscopicity. The class given is physicochemical. The conditions noted are these: 25° C., mass change 40% to 80% RH, first adsorption scan. As for the experimental part: Measurements are performed on a multi sample instrument SPS-100n (ProUmid, Ulm, Germany) operated in stepping mode at 25° C. The sample is allowed to equilibrate at 40% RH before starting a pre-defined humidity program (40-0-95-0-95-40% RH, steps of 5% ARH and with a maximal equilibration time of 24 hours per step are applied). About 20 to 30 mg of each sample is used. The hygroscopic classification is done on the basis of the European Pharmacopeia Technical Guide (1999, page 86), e.g., Non-hygroscopic: increase in mass is less than 0.2% mass/mass; slightly hygroscopic: increase in mass is less than 2% and equal to or greater than 0.2% mass/mass; hygroscopic: increase in mass is less than 15% and equal to or greater than 2% mass/mass. The mass change between 40% relative humidity and 80% relative humidity in the first adsorption scan is considered.

A short description of data set [3]: log P measured in octanol/phosphate buffer saline pH 7.4. It counts as physicochemical.
From the text: […]

Data set [4] deals with T1, C5AR1 (Homo sapiens, UniProt P21730).
T1 construct: host or cells: CHO-K1
T1 sequence (P21730 1-350): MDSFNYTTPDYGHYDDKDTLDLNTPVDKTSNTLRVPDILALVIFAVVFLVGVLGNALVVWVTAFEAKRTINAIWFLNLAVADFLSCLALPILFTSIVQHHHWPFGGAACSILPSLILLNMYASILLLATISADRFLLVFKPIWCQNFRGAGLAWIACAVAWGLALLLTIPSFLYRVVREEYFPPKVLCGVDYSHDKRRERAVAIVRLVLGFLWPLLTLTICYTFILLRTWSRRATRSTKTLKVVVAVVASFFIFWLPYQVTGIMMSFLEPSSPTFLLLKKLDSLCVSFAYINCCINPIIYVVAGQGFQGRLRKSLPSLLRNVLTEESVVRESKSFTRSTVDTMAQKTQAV
Put plainly: In vitro assay: CHO-K1 C5AR1 beta-arrestin cell line (PathHunter), antagonism of C5a. The class given is cell-based. To be noted: 1-10 nM C5a agonist; geometric mean; read-out: antagonistic activity (IC50). As for the experimental part: Adherent cells (CHO-K1 C5AR1 beta-arrestin cell line, DiscoverX, CA USA) are washed with PBS, detached by incubation with Dissociation Buffer (Gibco Cat #13151-014, 2 ml per 165 cm2 dish) for 3 minutes, then washed with 10 ml PBS (without Mg++ and Ca++) and counted. 7500 cells/384-well are seeded in 384-well plates (Cell culture plate MTP384 white Polystyrene, Corning, Cat #3570) in 20 μl/well Cell plating medium (F12 HAMs/10% FCS/1% P/S) and incubated at 37° C./5% CO2/24 h.
5 μl Antagonist at 6-fold end concentration or DMSO control is added to assay medium and subsequently 5 μl 1-10 nM C5a agonist at 6 fold end concentration. Cells are centrifuged for 1 min at 1000 rpm and incubated for 1.5 hour in at 37° C. Plates are equilibrated at room temperature for several minutes before adding 12 μl/well Detection Reagent (PathHunter Detection Kit, DiscoverX, Cat #93-0001). Plates are centrifuged for 1 min at 1000 rpm and incubated for 45 minutes at RT before being measured on a Fluostar Optima, BMG Labtech. IC50 values are calculated from a serial dilution range of antagonist using inhouse software and given in nmol/l.
The calculated IC50 values may fluctuate depending on the daily cellular assay performance. Fluctuations of this kind are known to those skilled in the art. Average IC50 values from several measurements are given as geometric mean values.

On to `Cc1cccc(F)c1N1CCC(N2Cc3cn(CC(C)(F)F)nc3N(Cc3ccccc3C(F)(F)F)C2=O)CC1` [Amorphous, 2-(2,2-Difluoro-propyl)-5-[1-(2-fluoro-6-methyl-phenyl)-piperidin-4-yl]-7-(2-trifluoromethyl-benzyl)-2,4,5,7-tetrahydro-pyrazolo[3,4-d]pyrimidin-6-one], for which the “HPLC 1 area compared to a reference that was stored at −20° C. for the same amount of time” value turned out to be 79% in data set [1] (closed vial for 30 days at 40° C. and 75% relative humidity); 57% in data set [1] (closed vial for 30 days at room temperature and day light exposure).

Take `Cc1cccc(F)c1N1CCC(N2Cc3cn(CC(C)(F)F)nc3N(Cc3ccccc3C(F)(F)F)C2=O)CC1` [COMPOUND in crystalline form 1, 2-(2,2-Difluoro-propyl)-5-[1-(2-fluoro-6-methyl-phenyl)-piperidin-4-yl]-7-(2-trifluoromethyl-benzyl)-2,4,5,7-tetrahydro-pyrazolo[3,4-d]pyrimidin-6-one]: the “Hygroscopicity as measured by GVS” value in data set [2] is on record as “non-hygroscopic”. In addition, the “HPLC 1 area compared to a reference that was stored at −20° C. for the same amount of time” value was found to be 100% in data set [1] (closed vial for 30 days at 40° C. and 75% relative humidity, listed as Form 1); 100% in data set [1] (closed vial for 30 days at room temperature and day light exposure, listed as Form 1).

In turn, `Cc1cccc(F)c1N1CCC(N2Cc3cn(CC(C)(F)F)nc3N(Cc3ccccc3C(F)(F)F)C2=O)CC1` [COMPOUND, 2-(2,2-Difluoro-propyl)-5-[1-(2-fluoro-6-methyl-phenyl)-piperidin-4-yl]-7-(2-trifluoromethyl-benzyl)-2,4,5,7-tetrahydro-pyrazolo[3,4-d]pyrimidin-6-one] yielded a logP in data set [3] of 6.9. Further, the IC50 in data set [4] amounted to 11 nM.
